Data: PubChem BioAssay AID248 (DTP/NCI, 2004)
Inconclusive results and toxic doses are left out.

Test system: L1210 leukemia ip in BDF1 mice, survival T/C
Test: NCI In Vivo Anticancer Drug Screen. Data for tumor model L1210 Leukemia (intraperitoneal) in B6D2F1 (BDF1) mice
Conditions: endpoint: mean survival time, higher = longer survival
Method in brief: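 In this screen, tumor-bearing mice given compound are compared to those given vehicle, and their survival values are reported as a treated-to-control quotient.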

[1] = dose: 75.0 mg/kg/injection, schedule: Q01DX009 (ip), vehicle: saline with Tween-80
[2] = dose: 150.0 mg/kg/injection, schedule: Q01DX009 (ip), vehicle: saline with Tween-80
[3] = dose: 300.0 mg/kg/injection, schedule: Q01DX009 (ip), vehicle: saline with Tween-80
[4] = dose: 100.0 mg/kg/injection, schedule: Q01DX009 (ip), vehicle: Klucel (hydroxypropylcellulose) (HPC)
[5] = dose: 200.0 mg/kg/injection, schedule: Q01DX009 (ip), vehicle: Klucel (hydroxypropylcellulose) (HPC)
[6] = dose: 400.0 mg/kg/injection, schedule: Q01DX009 (ip), vehicle: Klucel (hydroxypropylcellulose) (HPC)
[7] = dose: 100.0 mg/kg/injection, schedule: Q01DX001 (ip), vehicle: saline
[8] = dose: 100.0 mg/kg/injection, schedule: Q04DX003 (ip), vehicle: Klucel (hydroxypropylcellulose) (HPC)
[9] = dose: 200.0 mg/kg/injection, schedule: Q04DX003 (ip), vehicle: Klucel (hydroxypropylcellulose) (HPC)
[10] = dose: 400.0 mg/kg/injection, schedule: Q04DX003 (ip), vehicle: Klucel (hydroxypropylcellulose) (HPC)
[11] = dose: 100.0 mg/kg/injection, schedule: Q04DX002 (ip), vehicle: saline with Tween-80
[12] = dose: 200.0 mg/kg/injection, schedule: Q04DX002 (ip), vehicle: saline with Tween-80

## Nc1ccccc1SCCC(=O)O
dose: 37.5 mg/kg/injection, schedule: Q04DX003 (ip), vehicle: Klucel (hydroxypropylcellulose) (HPC)
  T/C: 96 % of control
[1]
  T/C: 106 % of control
dose: 75.0 mg/kg/injection, schedule: Q04DX003 (ip), vehicle: Klucel (hydroxypropylcellulose) (HPC)
  T/C: 86 % of control
[2]
  T/C: 105 % of control
dose: 150.0 mg/kg/injection, schedule: Q04DX003 (ip), vehicle: Klucel (hydroxypropylcellulose) (HPC)
  T/C: 91 % of control
[3]
  T/C: 98 % of control
dose: 300.0 mg/kg/injection, schedule: Q04DX003 (ip), vehicle: Klucel (hydroxypropylcellulose) (HPC)
  T/C: 96 % of control

## O=c1[nH]c2sccc2c(=O)n1OS(=O)(=O)c1ccccc1
[4]
  T/C: 105 % of control
[5]
  T/C: 122 % of control
[6]
  T/C: 93 % of control

## O=C1C=C(c2ccccc2)CO1
[7]
  T/C: 104 % of control
dose: 200.0 mg/kg/injection, schedule: Q01DX001 (ip), vehicle: saline
  T/C: 122 % of control
dose: 400.0 mg/kg/injection, schedule: Q01DX001 (ip), vehicle: saline
  T/C: 98 % of control

## COc1cc(C=Nc2ccc(-c3csc(-c4ccccc4)n3)c(Cl)c2)ccc1N(CCCl)CCCl
dose: 13.3 mg/kg/injection, schedule: Q01DX001 (ip), vehicle: carboxymethylcellulose (CMC)
  T/C: 122 % of control
dose: 20.0 mg/kg/injection, schedule: Q01DX009 (ip), vehicle: carboxymethylcellulose (CMC)
  T/C: 158 % of control
dose: 100.0 mg/kg/injection, schedule: Q01DX001 (ip), vehicle: carboxymethylcellulose (CMC)
  T/C: 166 % of control
dose: 200.0 mg/kg/injection, schedule: Q01DX001 (ip), vehicle: carboxymethylcellulose (CMC)
  T/C: 95 % of control

## CS(=O)(=O)OCCN(CCOS(C)(=O)=O)c1ccc(C=Nc2cc(Br)c(O)c(Br)c2)c(Cl)c1
[8]
  T/C: 98 % of control
[9]
  T/C: 98 % of control
[10]
  T/C: 97 % of control

## CCCCCCCCCN=C(N)CSSCC(N)=NCCCCCCCCC
dose: 1.0 mg/kg/injection, schedule: Q01DX009 (ip), vehicle: Klucel (hydroxypropylcellulose) (HPC)
  T/C: 109 % of control
dose: 1.0 mg/kg/injection, schedule: Q04DX002 (ip), vehicle: Klucel (hydroxypropylcellulose) (HPC)
  T/C: 101 % of control
dose: 2.0 mg/kg/injection, schedule: Q01DX009 (ip), vehicle: Klucel (hydroxypropylcellulose) (HPC)
  T/C: 111 % of control
dose: 2.0 mg/kg/injection, schedule: Q04DX002 (ip), vehicle: Klucel (hydroxypropylcellulose) (HPC)
  T/C: 116 % of control
dose: 4.0 mg/kg/injection, schedule: Q01DX009 (ip), vehicle: Klucel (hydroxypropylcellulose) (HPC)
  T/C: 109 % of control
dose: 4.0 mg/kg/injection, schedule: Q04DX002 (ip), vehicle: Klucel (hydroxypropylcellulose) (HPC)
  T/C: 116 % of control

## c1ccc2c(CCc3ccncc3)cccc2c1
[4]
  T/C: 103 % of control
[8]
  T/C: 101 % of control
[5]
  T/C: 100 % of control
[9]
  T/C: 103 % of control
[6]
  T/C: 97 % of control
[10]
  T/C: 100 % of control

## CC(C)(C)CC(O)Cc1ccccc1 (stereo not given)
[11]
  T/C: 93 % of control
[12]
  T/C: 93 % of control

## CC(C)(C)/[N+]([O-])=[N+](\[O-])C(C)(C)C (tested in a mixture with another compound)
dose: 100.0 mg/kg/injection, schedule: Q01DX009 (ip), vehicle: saline with Tween-80
  T/C: 98 % of control
[8]
  T/C: 100 % of control
dose: 200.0 mg/kg/injection, schedule: Q01DX009 (ip), vehicle: saline with Tween-80
  T/C: 105 % of control
[9]
  T/C: 96 % of control
dose: 400.0 mg/kg/injection, schedule: Q01DX009 (ip), vehicle: saline with Tween-80
  T/C: 90 % of control

## CC(=O)N1C(=O)C(Cl)C(Cl)C(=O)N1C(C)=O (stereo not given)
[8]
  T/C: 89 % of control
[9]
  T/C: 89 % of control

## CCCCCCC(O)C/C=C/CCCCCCCC(=O)O (stereo not given)
dose: 100.0 mg/kg/injection, schedule: Q04DX002 (ip), vehicle: Klucel (hydroxypropylcellulose) (HPC)
  T/C: 96 % of control
dose: 200.0 mg/kg/injection, schedule: Q04DX002 (ip), vehicle: Klucel (hydroxypropylcellulose) (HPC)
  T/C: 93 % of control
dose: 400.0 mg/kg/injection, schedule: Q04DX002 (ip), vehicle: Klucel (hydroxypropylcellulose) (HPC)
  T/C: 86 % of control

## CC(C)(C(Cl)Cl)S(=O)(=O)O (tested in a mixture with another compound)
dose: 9.0 mg/kg/injection, schedule: Q01DX001 (ip), vehicle: other
  T/C: 95 % of control
dose: 18.0 mg/kg/injection, schedule: Q01DX001 (ip), vehicle: other
  T/C: 106 % of control
dose: 37.0 mg/kg/injection, schedule: Q01DX001 (ip), vehicle: other
  T/C: 103 % of control
dose: 75.0 mg/kg/injection, schedule: Q01DX001 (ip), vehicle: other
  T/C: 98 % of control
[1]
  T/C: 107 % of control
dose: 75.0 mg/kg/injection, schedule: Q04DX003 (ip), vehicle: other
  T/C: 111 % of control
dose: 150.0 mg/kg/injection, schedule: Q01DX001 (ip), vehicle: other
  T/C: 101 % of control
[2]
  T/C: 105 % of control
dose: 150.0 mg/kg/injection, schedule: Q04DX003 (ip), vehicle: other
  T/C: 118 % of control
dose: 300.0 mg/kg/injection, schedule: Q01DX001 (ip), vehicle: other
  T/C: 113 % of control
[3]
  T/C: 102 % of control
dose: 300.0 mg/kg/injection, schedule: Q04DX003 (ip), vehicle: other
  T/C: 116 % of control

## COC(=O)c1cc2ccccc2c2c1OCN(C)C2
dose: 50.0 mg/kg/injection, schedule: Q01DX001 (ip), vehicle: saline
  T/C: 113 % of control
[7]
  T/C: 110 % of control

## C/C=C/C=C\COC(=O)C(C)Cl (stereo not given)
dose: 100.0 mg/kg/injection, schedule: Q04DX002 (ip), vehicle: saline
  T/C: 108 % of control
dose: 200.0 mg/kg/injection, schedule: Q04DX002 (ip), vehicle: saline
  T/C: 103 % of control
dose: 400.0 mg/kg/injection, schedule: Q04DX002 (ip), vehicle: saline
  T/C: 108 % of control

## COc1ccc(-n2c(=O)c(N=Nc3ccc(Cl)cc3)c(O)n(-c3ccccc3Cl)c2=S)cc1
dose: 50.0 mg/kg/injection, schedule: Q01DX001 (ip), vehicle: Klucel (hydroxypropylcellulose) (HPC)
  T/C: 106 % of control
dose: 100.0 mg/kg/injection, schedule: Q01DX001 (ip), vehicle: Klucel (hydroxypropylcellulose) (HPC)
  T/C: 97 % of control
dose: 200.0 mg/kg/injection, schedule: Q01DX001 (ip), vehicle: Klucel (hydroxypropylcellulose) (HPC)
  T/C: 95 % of control

## Cn1c2ccccc2c2nnc(NCCCO)nc21
[11]
  T/C: 86 % of control
[12]
  T/C: 104 % of control
dose: 400.0 mg/kg/injection, schedule: Q04DX002 (ip), vehicle: saline with Tween-80
  T/C: 97 % of control

## O=[N+]([O-])CC(C[N+](=O)[O-])C(F)(F)C(F)(F)C(F)(F)F
dose: 100.0 mg/kg/injection, schedule: Q01DX001 (ip), vehicle: other
  T/C: 101 % of control

## Cc1cn[nH]c1-c1ccccc1
dose: 50.0 mg/kg/injection, schedule: Q04DX003 (ip), vehicle: Klucel (hydroxypropylcellulose) (HPC)
  T/C: 107 % of control
[8]
  T/C: 104 % of control
[9]
  T/C: 94 % of control

## CCC(/C=C1\[Se]c2ccc(C)cc2N1CC)=C\c1[se]c2ccc(C)cc2[n+]1CC
dose: 2.0 mg/kg/injection, schedule: Q01DX001 (ip), vehicle: other
  T/C: 103 % of control
dose: 4.0 mg/kg/injection, schedule: Q01DX001 (ip), vehicle: other
  T/C: 101 % of control

## O=[N+]([O-])c1ccc2c(c1)-c1ccccc1C1=NCCN12
dose: 20.0 mg/kg/injection, schedule: Q04DX003 (ip), vehicle: Klucel (hydroxypropylcellulose) (HPC)
  T/C: 91 % of control
dose: 25.0 mg/kg/injection, schedule: Q01DX009 (ip), vehicle: Klucel (hydroxypropylcellulose) (HPC)
  T/C: 105 % of control
dose: 40.0 mg/kg/injection, schedule: Q04DX003 (ip), vehicle: Klucel (hydroxypropylcellulose) (HPC)
  T/C: 96 % of control
dose: 50.0 mg/kg/injection, schedule: Q01DX009 (ip), vehicle: Klucel (hydroxypropylcellulose) (HPC)
  T/C: 102 % of control
dose: 80.0 mg/kg/injection, schedule: Q04DX003 (ip), vehicle: Klucel (hydroxypropylcellulose) (HPC)
  T/C: 102 % of control
[4]
  T/C: 105 % of control
[8]
  T/C: 101 % of control
